What all share (experiment): DTP human tumour cell line panel, 48 h
Assay [1] concerns A549 NSCLC.
Assay [2] relates to ACHN renal.
The subject of assay [3] is CAKI-1 renal.
The test system of assay [4] is HCT-116 colon.
Assay [5] relates to HT29 colon.
The subject of assay [6] is NCI-H226 lung.
Assay [7] relates to NCI-H23 lung.
For assay [8], the system named is SR leukemia.
Assay [9] deals with UACC-257 melanoma.

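The compound was tested at five concentrations on cells cultured in 96-well plates, with a 48-hour exposure period. The concentration for 50% growth inhibition is given as GI50. TGI: total growth inhibition.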

In the case of `N#C/C(=C\c1ccc(O)c(O)c1)C(=O)NC1CCC(CC2CCC(NC(=O)/C(C#N)=C/c3ccc(O)c(O)c3)CC2)CC1` (stereo not drawn), the total growth inhibition concentration (TGI) in assay [1] was 4.56 µM; in assay [2], 4.24 µM; in [3], above 29.3 µM; in assay [4], 0.642 µM; in assay [5], 3 µM; in assay [6] it was 14.3 µM. The TGI in [7] is 3.89 µM; in assay [8] it was 3.36 µM; in [9], above 24.3 µM.

Take `Cn1nnnc1N/N=C/c1ccccc1`: the TGI in assay [1], in assay [2], in [3], in assay [4], in [5] and in [6] was above 10 µM throughout. Further, the concentration for total growth inhibition (TGI) in assay [7], in [8] and in assay [9] was above 10 µM each time.

`C=CC(C=O)C1(O)CCOC(=O)/C1=C\N` (stereo not drawn): the GI50 in assay [1], in assay [2], in assay [3], in assay [4], in [5] and in assay [6] was above 100 µM throughout. Further, the GI50 in [7] is 52.4 µM; in assay [8] it was 30.7 µM; in assay [9], above 100 µM. Besides, the TGI in assay [1], in assay [2], in [3], in assay [4], in [5] and in [6] was above 100 µM each time. Besides, the TGI in [7], in [8] and in [9] was above 100 µM each time.

Regarding `NNC(=S)N/N=C(/C(=O)Nc1cc(Cl)ccc1Cl)C1C(=O)Nc2ccccc2S1=O` (stereo not drawn), the TGI in assay [1], in assay [2], in [3], in [4], in assay [5] and in assay [6] was above 100 µM each time. Besides, the TGI in [7], in assay [8] and in [9] was above 100 µM each time.

As to `COc1ccc(N=Nc2c(-c3ccccc3)nn(C(=O)CC(=O)Nc3cccc(Cl)c3)c2-c2ccccc2)cc1`, the TGI in assay [1] was above 100 µM; in assay [2], above 100 µM; in assay [3] it was above 100 µM; in [4], above 100 µM; in [5], above 100 µM; in assay [6] it was 68.1 µM. Also, the TGI in assay [7] and in assay [9] was above 100 µM in each case.

With `O=C(c1cc2ccccc2o1)N(Cc1ccccc1)c1ccccc1`, the TGI was above 100 µM in assay [1]; above 100 µM in [2]; 55.5 µM in [3]; 31.9 µM in [4]; 66 µM in assay [5]; 34.9 µM in [6]. Also, the TGI in assay [7] is 71.2 µM; in assay [8], 68.4 µM; in assay [9] it was 41.4 µM.

For the molecule `Cc1ccc(Nc2n[nH]c(=S)s2)cc1`, the TGI in assay [1], in assay [2], in assay [3], in assay [4], in [5] and in assay [6] was above 100 µM throughout. Also, the concentration for total growth inhibition (TGI) in [7], in [8] and in assay [9] was above 100 µM in each case.

`COC(=O)C1=C(C(=O)OC)C23CC1C1C(C(=O)OC)=C(C(=O)OC)C12C1C=CC3C2C(=O)OC(=O)C21` (stereo not drawn): the concentration for total growth inhibition (TGI) in assay [1], in assay [2], in assay [4], in assay [5], in assay [7] and in assay [9] was above 100 µM each time.

Take `CCCc1c[nH]c(-c2ccc(-c3cc(CCC)c(C=O)[nH]3)s2)c1`: the TGI stood at 17.6 µM in [1]; 33.5 µM in assay [2]; 31.9 µM in assay [4]; 18.3 µM in assay [5]; 33.3 µM in assay [6]; 42.4 µM in assay [7]. The molecule also had a TGI in assay [9] of 31.2 µM.

`CCOC(=O)/C=C/c1cc2cc(-c3csc4ccccc34)ccc2[nH]1`: the GI50 is 4.39 µM in assay [1]; 7.15 µM in assay [2]; 3.13 µM in assay [3]; 2.96 µM in assay [4]; 3.39 µM in assay [5]; 10.6 µM in [6]. The GI50 in [7] was 18.3 µM; in assay [8], 1.98 µM; in assay [9] it was 12.6 µM. For the same molecule, the TGI in [1] turned out to be 18.1 µM; in assay [2], 20.1 µM; in assay [3], 15.2 µM; in assay [4] it was 31.4 µM; in assay [5], 11.6 µM; in assay [6], 32.7 µM. For the same molecule, the TGI in [7] came to 47.8 µM; in assay [8] it was 8.04 µM; in [9], 25.2 µM.

For the molecule `Cc1c(C(=O)C/C(=N/NC(=O)C[n+]2ccccc2)C(=O)Nc2ccccc2)[n+](=O)c2ccccc2n1O`, the TGI in [1], in [2], in assay [3], in assay [4], in assay [5] and in [6] was above 100 µM in each case. The TGI in assay [7], in assay [8] and in [9] was above 100 µM each time.

With `CCOC(=O)C1=C(O)CSC1=Nc1ccccc1`, the TGI in [1], in assay [2], in [3], in assay [4], in [5] and in assay [6] was above 100 µM in each case. Moreover, the TGI in [7], in assay [8] and in [9] was above 100 µM throughout.

For the molecule `CC(O)C(N=Cc1nc(-c2ccccc2)oc1O)C(=O)O` (stereo not drawn), the TGI in assay [1], in assay [2], in assay [3], in [4], in assay [5] and in assay [6] was above 100 µM in each case. For the same molecule, the TGI in assay [7] and in assay [9] was above 100 µM throughout.

For the origin of these results see PubChem BioAssay (NCI).
